Laboratory results taken from patent US20220296573A1, “NOVEL COMPOUNDS AND PHARMACEUTICAL COMPOSITIONS THEREOF FOR THE TREATMENT OF INFLAMMATORY DISORDERS” (Galapagos NV, priority 2019, published 2022).
Converted amounts (≈) assume the structure as drawn. Where two headings read alike, the source gives them in different places.

Assay: Thermodynamic solubility
Format: physicochemical
Conditions: for solubility thermodynamic at 24 h: 37 °C, thermodynamic from solid
Method: In a 8 mL glass vial, 1-2 mg of dry matter of compound were added and stirred with the suitable buffers (Fed State Simulated Intestine Fluid, FeSSIF, or Fasted State Simulated Intestine Fluid, FaSSIF, or Fasted State Simulated Gastric Fluid, FaSSGF, or phosphate buffer pH 7.4) for 24 h at r.t. (for the buffer pH 7.4) or 37° C. (for the GI fluids). The concentration of the mixture was 1 mg/mL.
A volume of 1000 μL were sampled, centrifuged for 10 min at 10 000 rpm and 500 μL of the supernatant were filtered on captiva plate. The samples are diluted in duplicates in DMSO (F100 and F10). Then, a final dilution (F100) in 80/20 H2O/MeCN containing the internal standard (warfarin) was used for LCMS-MS analysis.
A standard curve was made starting from a 40,000 ng/mL stock in DMSO, freshly prepared from dry matter. Then, successive concentrations at 15,000, 11,000, 6,000, 2,500, 1,000, 375, 150 and 75 ng/mL in DMSO were prepared.
Three quality control samples were made: one of 10,000, 1,500 and 200 ng/mL in DMSO, also starting from the DMSO working stock solution at 40,000 ng/mL.
The standard curve and quality controls were diluted a F100 in 80/20 H2O/MeCN (with internal standard) and analyzed on LC/MS-MS (API4000 or API5500).
The samples were analyzed on LC-MS with a flow rate of 0.6 mL/min. The mobile phase A was 0.1% formic acid in water and the mobile phase B was 0.1% formic acid in 90% MeCN and 10% of water. The sample was run under positive or negative ion spray on Pursuit C18—5 μm (2.0×20 mm) column, from Agilent.
The ratio analyte/internal standard peaks areas of the standard curve were plotted in a graph and a linear or polynomial of the second order equation was used to calculate the unknown concentrations of the test compound.
Solubility values were reported in μM and g/mL.

[1] = Fasted State Simulated Gastric Fluid (FaSSGF), fassgf or other biorelevant, Fasted State Simulated Gastric Fluid, read-out: Tsol FaSSGF
[2] = Fasted State Simulated Intestine Fluid (FaSSIF), fassif, Fasted State Simulated Intestine Fluid, read-out: Tsol FaSSIF
[3] = Fed State Simulated Intestine Fluid (FeSSIF), fessif, Fed State Simulated Intestine Fluid, read-out: Tsol FeSSIF
[4] = Fasted State Simulated Intestine Fluid, 24 h, 37° C.

solubility thermodynamic at 24 h [1] [µg/mL]	solubility thermodynamic at 24 h [2] [µg/mL]	solubility thermodynamic at 24 h [3] [µg/mL]	Tsol FaSSIF [4]	SMILES	other results
> 1000	28.2 (≈ 68.7 µM)	> 1000		COc1cc2nc(C3COCCO3)cn2cc1NC(=O)c1cccn(C2CC2)c1=O (racemic) [Compound 1, 1-cyclopropyl-N-[2-(1,4-dioxan-2-yl)-7-methoxy-imidazo[1,2-a]pyridin-6-yl]-2-oxo-pyridine-3-carboxamide]	
			31.6 µg/mL	COc1cc2nc(C3COCCO3)cn2cc1NC(=O)c1cccn(C2CC2)c1=O (single isomer, unassigned) [Compound 7, 1-cyclopropyl-N-[2-(1,4-dioxan-2-yl)-7-methoxy-imidazo[1,2-a]pyridin-6-yl]-2-oxo-pyridine-3-carboxamide]	Tsol FaSSGF (Fasted State Simulated Gastric Fluid, 24 h, 37° C.): 958 µg/mL; Tsol FeSSIF (Fed State Simulated Intestine Fluid, 24 h, 37° C.): 117 µg/mL
1000 (≈ 2440 µM)		208 (≈ 507 µM)	67.4 µg/mL	COc1cc2nc(C3COCCO3)cn2cc1NC(=O)c1cccn(C2CC2)c1=O (single isomer, unassigned) [Compound 8, 1-cyclopropyl-N-[2-(1,4-dioxan-2-yl)-7-methoxy-imidazo[1,2-a]pyridin-6-yl]-2-oxo-pyridine-3-carboxamide]	
1020 (≈ 2430 µM)	19.3 (≈ 45.9 µM)			COc1cc2nc(C3CCOCC3)cn2cc1NC(=O)c1cccc(C(F)(F)F)n1 [Compound 2, N-(7-methoxy-2-tetrahydropyran-4-yl-imidazo[1,2-a]pyridin-6-yl)-6-(trifluoromethyl)pyridine-2-carboxamide]	
947 (≈ 2320 µM)	1010 (≈ 2480 µM)			COc1cc2nc(C3CCOCC3)cn2cc1NC(=O)c1cccn(C2CC2)c1=O [Compound 3, (1-cyclopropyl-N-[7-methoxy-2-(oxan-4-yl)imidazo[1,2-a]pyridin-6-yl]-2-oxopyridine-3-carboxamide)]	
	43.9 (≈ 103 µM)			COc1cc2nc(C3COCCO3)cn2cc1NC(=O)c1cccn(C2CCC2)c1=O (stereo not shown) [Compound 5, 1-cyclobutyl-N-[2-(1,4-dioxan-2-yl)-7-methoxy-imidazo[1,2-a]pyridin-6-yl]-2-oxo-pyridine-3-carboxamide]	
			2.30, 2.30 μg/mL	NC(=O)c1cc2nc(C3COCCO3)cn2cc1NC(=O)c1cccc(C(F)(F)F)n1 (stereo not shown) [Compound 6, 2-(1,4-dioxan-2-yl)-6-[[6-(trifluoromethyl)pyridine-2-carbonyl]amino]imidazo[1,2-a]pyridine-7-carboxamide]	
	6.42 (≈ 14.3 µM)			CNC(=O)c1cc2nc(C3COCCO3)cn2cc1NC(=O)c1cccc(C(F)(F)F)n1 (stereo not shown) [Compound 9, 2-(1,4-dioxan-2-yl)-N-methyl-6-(6-(trifluoromethyl)picolinamido)imidazo[1,2-a]pyridine-7-carboxamide]	
335 (≈ 777 µM)	12.2 (≈ 28.3 µM)			CC(F)(F)c1cccc(C(=O)Nc2cn3cc(C4COCCO4)nc3cc2C(N)=O)n1 (stereo not shown) [Compound 11, 6-(6-(1,1-difluoroethyl)picolinamido)-2-(1,4-dioxan-2-yl)imidazo[1,2-a]pyridine-7-carboxamide]	
		270 (≈ 591 µM)		COc1cc2nc(C3CCS(=O)(=O)CC3)cn2cc1NC(=O)c1cccn(C2CC2)c1=O [Compound 23, 1-cyclopropyl-N-(2-(1,1-dioxidotetrahydro-2H-thiopyran-4-yl)-7-methoxyimidazo[1,2-a]pyridin-6-yl)-2-oxo-1,2-dihydropyridine-3-carboxamide]	
